Laboratory results from US11504310B2, “Aqueous microemulsion” (Firmenich SA, priority 2017, dated 2022).

Assays:
[1] = logP of fragrance raw materials and fragrances
[2] = physchem
[3] = single raw materials of fragrances F1-F4 (Tables 1-4)

Row | Compound | logP [1] | also measured
1 | 1-OXA-12/13-CYCLOHEXADECEN-2-ONE [HABANOLIDE ®] |  | logP [1, 3]: 4.88
2 | 2/3-METHYLBUTYL ACETATE [AMYL ACETATE] |  | logP [1, 3]: 2.26
3 | CCCC(C)C(=O)OCC (racemic) [(+ −)-ETHYL 2-METHYLPENTANOATE] | 2.76 | 
4 | CCCCCCC1CCC(=O)O1 (racemic) [DECALACTONE CP, (+ −)-4-DECANOLIDE] | 2.72 | 
5 | C=CC(C)CCCC(C)(C)O (racemic) [DIHYDROMYRCENOL PURE, (+ −)-2,6-DIMETHYL-7-OCTEN-2-OL] | 3.47 | 
6 | CCC1CCC(=O)O1 (racemic) [GAMMA HEXALACTONE, (+ −)-4-HEXANOLIDE] |  | logP [2]: 0.6
7 | CC(=O)/C(C)=C/C1C(C)=CCCC1(C)C (racemic) [ISORALDEINE 70 P, (+ −)-(3E)-3-methyl-4-(2,6,6-trimethyl-2-cyclohexen-1-yl)-3-buten-2-one] | 4.84 | 
8 | CC1/C=C/CCCCCCCCCCC(=O)C1 (racemic) [MUSCENONE DELTA, (+ −)-(4E)-3-METHYL-4-CYCLOPENTADECEN-1-ONE] | 5.75 | 
9 | CCCCCC1(C)CCC(C)(C)C1=O (racemic) [VELOUTONE, (+ −)-2,2,5-trimethyl-5-pentylcyclopentanone] | 4.34 | 
10 | Cc1ccc2c(c1)OCC(=O)CO2 [CALONE ®, 7-methyl-2H-1,5-benzodioxepin-3(4H)-one] | 2.43 | 
11 | CC(C)(O)CCC1CCCCC1 [CORANOL, 4-CYCLOHEXYL-2-METHYL-2-BUTANOL] | 3.98 | 
12 | CCOc1cc(C=O)ccc1O [ETHYL VANILLIN, 3-ethoxy-4-hydroxybenzaldehyde] |  | logP [2]: 1.58
13 | O=C1CCCCCCCCCCCCCCO1 [EXALTOLIDE ®, oxacyclohexadecan-2-one] | 6.15 | 
14 | CCOC(=O)CC1(C)OCCO1 [FRUCTONE ®, ETHYL 2-METHYL-1,3-DIOXOLANE-2-ACETATE] | 1.3 | 
15 | CC(C)=CCCC(C)=CCO [GERANIOL LJ] | 3.47 | 
16 | CCC(=O)OCC(C)(C)O[C@@H](C)[C@@H]1CCCC(C)(C)C1 [HELVETOLIDE ®, (+)-(1S,1′R)-2[1-(3′,3′-DIMETHYL-1′-CYCLOHEXYL)ETHOXY]-2-METHYLPROPYL PROPANOATE] |  | logP [1, 3]: 5.51
17 | CC1=CC(C)C(C=O)C(C)C1 (centres unmarked) [ISOCYCLOCITRAL] |  | logP [1, 3]: 3.27
18 | COC(=O)/C=C/c1ccccc1 [METHYL CINNAMATE, METHYL (E)-3-PHENYL-2-PROPENOATE] | 2.62 | 
19 | COC(=O)c1c(C)cc(O)c(C)c1O [MOUSSE CRISTAL, METHYL 2,4-DIHYDROXY-3,6-DIMETHYLBENZOATE] | 3.22 | 
20 | OCCCc1ccccc1 [PHENYLPROPYL ALCOHOL, 3-PHENYL-1-PROPANOL] |  | logP [1, 3]: 1.88
21 | CC(C)=CC1CC(C)CCO1 (centres unmarked) [ROSE OXIDE, TETRAHYDRO-4-METHYL-2-(2-METHYL-1-PROPENYL)-2H-PYRAN] | 3.58 | 
22 | CCC(=O)OC1CC2CC1C1CC=CC21 (centres unmarked) [VERDYL PROPIONATE, TRICYCLO[5.2.1.0(2,6)]DEC-3-EN-8-YL PROPANOATE] | 3.34 | 
23 | ALLYL (2/3-METHYLBUTOXY)ACETATE [ALLYL AMYL GLYCOLATE] |  | logP [1, 3]: 2.34
